This note sets out measurements from patent US20150119251A1, “AGRICULTURAL PLANT-PROTECTING AGENTS CONTAINING DIPEPTIDE DERIVATIVE AS ACTIVE INGREDIENT” (REPUBLIC OF KOREA (RURAL DEVELOPMENT ADMINISTRATION), priority 2012, published 2015).

The test system of assay [1] is pepper phytophthora blight (Phytopthora capsici). Kind of assay: Suppression of pepper phytophthora blight on leaves. The format is in vivo. The note with it: 0.1 mM.
In assay [2] the test system is tobacco bacterial rot (Pectobacterium carotovorum). The assay can be described thus: Suppression of tobacco bacterial rot. It is filed as in vivo, Pectobacterium carotovorum SCC1. The gist of the method: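 Test compounds at 1, 10 and 100 ppm (from 20% methanol stock) were applied to tobacco leaves; 7 days later plants were sprayed with Pectobacterium carotovorum SCC1 at 10^8 cfu/mL and kept 3 days at 30° C. Lesion area scored visually as 0–100%.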

The test system of assay [3] is GUS gene induced by PR-1α disease-resistance promoter. Kind of assay: PR-1a GUS activation on tobacco leaves (MUG fluorescence). The note with it: tobacco leaf injection, after three days. The format is in vivo, tobacco (Xanth-nc). As to the method: After the tobacco (Xanth-nc) bound with GUS gene induced by PR-1α disease-resistance promoter was grown for 3 weeks, 100 μL of the diluted solution of Compound 74 was injected to second leaves with a syringe. After three days, the surrounding leaves were collected in an internal diameter size of 5 mm with a cork borer, the samples thus obtained were added to a 1.5 mL of an eppendorf tube, and 20 μL of GUS extraction buffer solution was further added, ground, and then centrifuged at 8000 G for 3 minutes to obtain supernatant. The same amount of 2 mM MUG (4-methyl umbellifryl-B-glucuronide) solution was added, reacted at 37° C. for 1 hour, and then 960 μL of stop buffer solution (0.2 M, Na2CO3 solution) was added to be 1 mL. Since then, the fluorescence was measured with a TKO 100 fluorometer (Hoefoer Scientific Instruments, USA). At this time, the fluorescence amount was calibrated using a MU (4-methyl umbellyferon) as a standard reagent, and the GUS activity was calculated using MU-mM/sample−10 mg/time. The results thus obtained are listed in the following Table 2 and illustrated in FIG. 2.

The subject of assay [4] is anthracnose germ (Colletotrichum orbiculare). The assay can be described thus: Suppression of anthracnose on cucumber leaves by seed treatment. It is filed as in vivo. Conditions: seeds treated at 100 ppm for 2 hours, spores sprayed after 3 weeks, read after 7 days, FIG. 4. As to the method:
Compound 61 or Compound 74 were deposited on the seeds of cucumbers in the concentration of 100 ppm for 2 hours, and after 3 weeks, the spores of anthracnose germ (Colletotrichum orbiculare) were sprayed in the concentration of 10^5 spore/mL thereto, and then, after 7 days, the disease outbreak was investigated. The results thus obtained are illustrated in the photographs of FIG. 4.

A further assay concerns Phytophthora capsici. The assay can be described thus: Suppression of phytophthora blight in pepper roots and leaves after drench inoculation. The format is in vivo. Conditions: sprayed on leaves, roots drench-inoculated after 1 week, observed 7 days, FIG. 10. From the text: The peppers were raised in the same method as Example 3, Compound 85 was sprayed on the leaves, and then after 1 week, the Phytophthora capsici swarm suspension was drench-inoculated. While observing for 7 days, the lesion formation on the leaves and roots were investigated. […] The test results of Compound 85 on suppressing the outbreak of phytophthora blight are illustrated in FIG. 10.

The subject of assay [5] is pepper phytophthora blight (Phytopthora capsici). The assay can be described thus: Suppression of pepper phytophthora blight on leaves. The format is in vivo. The note with it: pepper leaves. As to the method: The peppers were raised in the same method as Example 3, and then, the test compounds were dissolved in 20% methanol to make a stock solution, and a stock was diluted to the concentrations of 0.1, 1.0, and 10.0 ppm. The test solutions were sprayed on the leaves or drench-treated on the leaves. After 7 days, the pathogen of plant bacterial rot (Pectobacterium carotovorum SCC1) was cultured in a TSA medium for 27 hours, and then, wetted on an 8 mm diameter paper disc in the concentration of 10^8 cfu/mL. The paper disc was located in the center of the leaves that were cut roundly, and then, after about 7 days, the lesion area was measured. In the case of phytophthora, the potato agar medium cultured with the phytophthora (Phytophthora capsici) was cut in the internal diameter size of 5 mm with a cork borer, and then inoculated to the leaves. After 7 days, the lesion area was observed. In the case of a bacterial rot, when Compounds 6, 89, 93, and 95 were sprayed on the pepper leaves, the bacterial rot was not found in the concentration of 1 or 10 ppm as compared with the non-treated group. […] The Suppression of lesion formation on the leaves when these compounds were drench-treated to the roots can be explained as it was resulted from that systemic disease resistance was induced in the whole plant. These test results are illustrated in the photographs of FIGS. 5 to 9.

The structures appear in SMILES notation. Square brackets hold non-standard residues; d marks the D form. Peptide text beside a SMILES is read from it. * marks the point of attachment. Trt = c1ccc(C(c2ccccc2)(c2ccccc2)*)cc1; Boc = CC(C)(C)OC(=O)*

Consider `CSC(=O)c1cccc2nnsc12` [BTH, benzo-1,2,3-thiadiazole-7-carbothio acid S-methyl ester, reference compound], for which the Lesion outbreak rate worked out at 17 area % in assay [1]; 90% in assay [2] (Table 3, tobacco, 1 ppm); 90% in assay [2] (Table 3, tobacco, 10 ppm); 90% in assay [2] (Table 3, tobacco, 100 ppm); 88% in assay [2] (Table 4, tobacco, 1 ppm); 88% in assay [2] (Table 4, tobacco, 10 ppm). Moreover, the Lesion outbreak rate came out at 88% in assay [2] (Table 4, tobacco, 100 ppm); 25% in assay [2] (Table 5, tobacco, 10 ppm); 25% in assay [2] (Table 5, tobacco, 100 ppm); 100% in assay [2] (Table 6, tobacco, 1 ppm); 100% in assay [2] (Table 6, tobacco, 10 ppm); 100% in assay [2] (Table 6, tobacco, 100 ppm). The “PR1a GUS expression” value in assay [3] (0.1 mM) is recorded as 324,000 nM MU/10 mg FW/1 hr.
In the case of `COC(=O)[C@@H]1CCCN1C(=O)[C@H](CSC(c1ccccc1)(c1ccccc1)c1ccccc1)NC(=O)OC(C)(C)C` [Compound 61] (Boc-Cys(Trt)-Pro-OMe), the “Anthracnose on the leaves of cucumber as compared with the non-treated group” value in assay [4] was “hardly found”. Also, the Lesion outbreak rate in assay [2] (Table 5, tobacco, 10 ppm) is reported as 20%; in assay [2] (Table 5, tobacco, 100 ppm), 16%.
As for `COC(=O)[C@H]1CCCN1C(=O)[C@H](CSC(c1ccccc1)(c1ccccc1)c1ccccc1)NC(=O)OC(C)(C)C` [Compound 74] (Boc-Cys(Trt)-[dP]-OMe), the “Anthracnose on the leaves of cucumber as compared with the non-treated group” value in assay [4] is “hardly found”. Moreover, the Lesion outbreak rate in assay [2] (Table 6, tobacco, 1 ppm) turned out to be 25%; in assay [2] (Table 6, tobacco, 10 ppm) it was 34%; in assay [2] (Table 6, tobacco, 100 ppm) it was 22%. Besides, the “PR1a GUS expression” value in assay [3] (0.1 ppm) is reported as 7,800 nM MU/10 mg FW/1 hr; in assay [3] (1.0 ppm) it was 15,000 nM MU/10 mg FW/1 hr; in assay [3] (10.0 ppm) it was 420,000 nM MU/10 mg FW/1 hr; in assay [3] (100.0 ppm), 860,000 nM MU/10 mg FW/1 hr.
In the case of `CCC(C)C(NC(=O)OC(C)(C)C)C(=O)N1CCCC1C(=O)OC` (stereo not drawn) [Compound 85] (Boc-Ile-Pro-OMe; configuration not given here), in the assay with Phytophthora capsici, the “Phytophthora blight (lesion formation) on the leaves and roots as compared with the control group” value is “significantly suppressed”. Further, the Lesion outbreak rate in assay [5] (0.1 ppm) was 24 area %; in assay [5] (1.0 ppm) it was 15 area %.
